Experimental data taken from PMC12128024, “Copper(II) Cyclopeptides with High ROS-Mediated Cytotoxicity” (Bioconjugate Chemistry, 2025).

Legend:
NCI/ADR-RES cells [1] = assay: Intracellular ROS generation (ROS Assay Stain 1X); assay type: cell-based; settings: 100 μM compound with 125 μM H2O2, 1-5 h and 24 h, 1/Cu(II) equimolar
Protocol: Measurement of intracellular ROS levels in NCI/ADR-RES cells treated with Cu(II) ions, cyclopeptide 1, or the 1/Cu(II) metallopeptide system confirmed a time-dependent increase in the level of ROS generation. In short, after 24 h of incubation, cells were stained with ROS Assay Stain 1× and treated with 100 μM Cu(II) (CuCl2·2H2O), cyclopeptide 1, or 1/Cu(II), along with 125 μM H2O2, and fluorescence was recorded (λex = 495/λem = 520 nm) every hour for the first 5 h and again at 24 h. The experiment with the metallopeptide system was conducted by using equimolar amounts of cyclopeptide 1 and Cu(II) to prevent an excess of free copper in the medium. […] The cytotoxicity of the metallopeptide systems appears to be closely linked to their ability to enhance intracellular oxidative stress via increased ROS production, likely driven by Cu(II) accumulation within the cells.
9.2. […]
NCI/ADR-RES cells were seeded in a 96 well plate (Thermo Scientific 165305) at a density of 2,5 x 10^5 cells/ml. […] The fluorescence was measured in a microplate reader every hour for the first 5 hours, and again at 24 hours after the addition of the compounds (λex= 495 nm / λem= 520 nm). […]
Figure S15. […] Fluorescence (λex= 495 nm / λem= 520 nm) was recorded every hour for the first 5 hours, and again at 24 hours after the addition of the compounds to assess intracellular ROS generation. […]

SF-268 (human glioma) = settings: SF-268, crystal violet, 72 h; for IC50: 1/Cu(II) 3 equiv Cu(II), 2/Cu(II) 5 equiv Cu(II); for E max (maximum % cell inhibition): at maximum concentration
From the text: (§1) IC50 is the concentration at which 50% growth inhibition is obtained and E max represents the efficacy of the compound at its maximum concentration, expressed as the maximum % cell inhibition achieved by the compound (see Section S6 and Figure S8 of the Supporting Information).
(§2) General method: cell lines and grown conditions
(§3) Non-small lung carcinoma NCI-H460, human colon carcinoma HCT-116, human glioma SF-268
(§4) and doxorubicin-resistance human mamma carcinoma NCI/ADR-RES cell lines, as well as
(§5) Eagle’s Minimal Essential Medium (EMEM) and RPMI1640 were purchased from the American Tissue Culture Collection (ATCC). Frozen cells were thawed in a 75 cm2 cell culture flask in RPMI
(§6) supplemented with 2 mM L-glutamine and 10% FBS and maintained at 37 °C in a 5% CO2
(§7) The inhibition of cell proliferation induced by the samples [1/Cu(II), 1 eq. cyclopeptide 1/3 eq. of
(§8) Cu(II); 2/Cu(II), 1 eq. cyclopeptide 2/5 eq. of Cu(II)]‚ was carried out by using MTT method for
(§9) HCT-116, NCI/ADR-RES and NCI-H460 cell lines. SF-268 cell growth inhibition induced by the
(§10) samples was assessed using a system based on crystal violet cell staining and subsequent
(§11) acetylation. Cells were seeded in a 96-well microplate (5000 cells/well for HCT-116, 10000
(§12) cells/well for SF-268 and 15000 cells/well for NCI/ADR-RES and NCI-H460 cell lines) in 100 μl
(§13) of growth medium and maintained at 37 °C for 24 h.
(§14) Then growth medium was replaced by fresh medium containing different concentrations of the
(§15) samples to be assayed and maintained at 37 °C in a 5% CO2 atmosphere for 48 h. After this
(§16) time, 10 μL MTT (5 mg/ml in PBS) were added to each well and maintained for 4 h at 37 °C in a
(§17) 5% CO2 atmosphere. Then 100 μL of 10% SDS in 0.01 M HCl were added to each well an
(§18) incubated for 12-14 h under the same experimental conditions. Absorbance due to formation
(§19) was detected in a Tecan infinity M1000 Pro reader using a wavelength of 595 nm. All assays
were performed with triplicate points.
b) Crystal violet cell staining
(§20) The samples dissolved in water were added, maintaining the same proportion of water in each
(§21) well (10%). After 72 h (at 37°C and in an atmosphere of 5% CO 2/95% air), the cells were fixed to
(§22) the plate with 10 μL of 11% glutaraldehyde solution, kept under agitation at room temperature,
(§23) for 15 minutes. Once fixed, the medium was removed and the cells were washed 3-4 times with
(§24) distilled water, followed by staining of the cells with 100 μL of a 0.1% crystal violet solution. This
(§25) solution was prepared by diluting 0.1g of crystal violet in 100 mL of buffer composed of 200 mM
(§26) phosphoric acid, 200 mM formic acid and 200 mM 2-(N-morpholino)-ethane sulphonic acid
(§27) (MES) at pH 6. The plate was kept shaking at room temperature for 15 minutes. The dye was
(§28) removed, washed 3-4 times with distilled water and dried. 100 μL of 10% acetic acid was then
(§29) added and kept under agitation for 15 minutes, at room temperature, so that the staining was
(§30) homogeneous in all wells. Finally, an absorbance reading of the plates was performed at a
(§31) wavelength of 595 nm (Tecan M1000 Infinite Pro). The assay was performed with triplicate points.
(§32) Data were expressed as the growth inhibition percentage calculated in basis on the equation: %
(§33) inhibition= 100 – [(AO × 100) / AT]. Where AT is the measured absorbance in wells containing
(§34) compounds and AO is the absorbance measured in blank wells (cells with medium and vehicle).
(§35) The inhibitory potency of compounds was calculated by constructing concentration-% growth
(§36) inhibition curves, and extrapolating IC50 values (concentration of compound that inhibits cells

[2] = test system: nontransformed lung fibroblast (MRC-5); settings: MRC-5, 48 h; for IC50: 1/Cu(II) 3 equiv Cu(II), 2/Cu(II) 5 equiv Cu(II); for E max (maximum % cell inhibition): at maximum concentration
From the text: as §1, §2, §3, §4, §5, §6, §7, §8, §9, §10, §11, §12, §13, §14, §15, §16, §17, §18, §19
were performed with triplicate points.
b) Crystal violet cell staining
as §20, §21, §22, §23, §24, §25, §26, §27, §28, §29, §30, §31, §32, §33, §34, §35, §36

[3] = test system: NCI/ADR-RES (doxorubicin resistant ovarian carcinoma); settings: NCI/ADR-RES, MTT, 48 h; for IC50: 1/Cu(II) 3 equiv Cu(II), 2/Cu(II) 5 equiv Cu(II); for E max (maximum % cell inhibition): at maximum concentration
From the text: as §1, §2, §3, §4, §5, §6, §7, §8, §9, §10, §11, §12, §13, §14, §15, §16, §17, §18, §19
were performed with triplicate points.
b) Crystal violet cell staining
as §20, §21, §22, §23, §24, §25, §26, §27, §28, §29, §30, §31, §32, §33, §34, §35, §36

[4] = test system: NCI-H460 (lung carcinoma); settings: NCI-H460, MTT, 48 h; for IC50: 1/Cu(II) 3 equiv Cu(II), 2/Cu(II) 5 equiv Cu(II); for E max (maximum % cell inhibition): at maximum concentration
From the text: as §1, §2, §3, §4, §5, §6, §7, §8, §9, §10, §11, §12, §13, §14, §15, §16, §17, §18, §19
were performed with triplicate points.
b) Crystal violet cell staining
as §20, §21, §22, §23, §24, §25, §26, §27, §28, §29, §30, §31, §32, §33, §34, §35, §36

[5] = test system: HCT-116 (colon carcinoma); settings: HCT-116, MTT, 48 h; for IC50: 1/Cu(II) 3 equiv Cu(II), 2/Cu(II) 5 equiv Cu(II); for E max (maximum % cell inhibition): at maximum concentration
From the text: as §1, §2, §3, §4, §5, §6, §7, §8, §9, §10, §11, §12, §13, §14, §15, §16, §17, §18, §19
were performed with triplicate points.
b) Crystal violet cell staining
as §20, §21, §22, §23, §24, §25, §26, §27, §28, §29, §30, §31, §32, §33, §34, §35, §36

NCI/ADR-RES cells [6] = assay: ICP-MS internalization study (intracellular Cu accumulation); assay type: cell-based; settings: 1 µM compound, 48 h, metallopeptides 1 eq. cyclopeptide + 1 eq. Cu(II)
Protocol: To evaluate the ability of the Cu(II) metallopeptide systems to internalize in cancer cells, ICP-MS studies were performed in NCI/ADR-RES cells after 48 h of incubation with cyclopeptides 1 and 2, as well as their corresponding 1/Cu(II) and 2/Cu(II) metallopeptide derivatives formed by mixing each cyclopeptide with 1 equiv Cu(II), and using CuCl2·2H2O both as a Cu(II) source and a control.
7.1. General methods and materials
ICP Measurements were conducted employing an Agilent 7900 ICP-MS system (Agilent Technologies, Tokyo, Japan). The sample introduction system was comprised of an autosampler, a double-pass spray chamber with Peltier system, a glass concentric nebulizer (MicroMist low-flow nebulizer, Glass Expansion, West Melbourne, Australia), and a quartz torch.
Quantification of copper concentrations was achieved using Agilent ICP-MS MassHunter 5.1, (Version D.01.01 Agilent Technologies, Tokyo, Japan). The parameters for the ICP-MS device were as follows: RF Power, 1550 W; Sample Depth, 8; Carrier Gas, 1.1 L/min; Nebulizer Pump […]
Roswell Park Memorial Institute 1640 medium (RPMI), fetal bovine serum (FBS), penicillin, and streptomycin were purchased from Invitrogen Thermo Fisher.
Ovarian tumour NCI/ADR-RES cells, obtained from the European Collection of Authenticated Cell Cultures (ECACC), were cultured at 37 °C in a 5% CO2 atmosphere in RPMI medium containing 10% FBS and supplemented with 50 U/mL penicillin and 50 U/mL streptomycin, in 75 cm2 cell culture flasks. All cell experiments were performed at 37 °C in a 5% CO 2 atmosphere with this modified RPMI, referred as “medium” or “culture medium”.
7.3. […]
The culture medium was then replaced with 3 mL of fresh medium containing 1 µM of the compound [Cu(II) (CuCl₂·2H₂O), cyclopeptide ( 1 or 2), or metallopeptide system [1/Cu(II) or 2/Cu(II); 1 eq. cyclopeptide + 1 eq. […] Lysates were digested at 95 °C overnight, diluted with 1% HNO₃ to a final volume of 5 mL, and analyzed by ICP-MS. The Cu(II) content in the culture medium (3 mL) was also measured using the same technique, yielding a value of 41.46 ng. […]

| Structure (SMILES) | intracellular ROS levels (fluorescence) (NCI/ADR-RES cells [1]) | IC50 (SF-268 (human glioma)) | E max (maximum % cell inhibition) (SF-268 (human glioma)) | IC50 [2] | E max (maximum % cell inhibition) [2] | IC50 [3] | E max (maximum % cell inhibition) [3] | IC50 [4] | E max (maximum % cell inhibition) [4] | IC50 [5] | E max (maximum % cell inhibition) [5] | intracellular Cu(II) accumulation (ICP-MS) (NCI/ADR-RES cells [6]) |
| --- | --- | --- | --- | --- | --- | --- | --- | --- | --- | --- | --- | --- |
| O.O.[Cl][Cu][Cl] [CuCl2·2H2O, reference compound] | moderate effect | > 100 µM | 87 ± 1% | 79 ± 3 µM | 91 ± 1% | 99 ± 1 µM | 91 ± 1% | > 100 µM | 97 ± 1% | > 100 µM | 94 ± 1% | modest increase in intracellular copper |
| N.N.[Cl][Pt][Cl] [cisplatin, reference compound] |  | 3.89 ± 0.08 µM | 92 ± 1% | 5.7 ± 0.22 µM | 92 ± 1% | 13 ± 1 µM | 86 ± 1% | 5.29 ± 0.46 µM | 62 ± 4% | 13 ± 1 µM | 94 ± 1% |  |
